Measurements: patent US8227406B2, “Antimicrobial peptides” (Dermagen AB, priority 2006, dated 2012)
Where no end group is shown, it is not given here.

How the values were obtained:
[1] = tested on: Staphylococcus aureus ATCC29213; assay: Radial diffusion assay (RDA), S. aureus; assay type: cell-based; conditions: for RDA values (mm) S. aureus ATCC 29213: Table 1b, 10 mM Tris Hcl (pH 7.4)
Experimental: (§1) Peptides. Peptides were from Sigma-Genosys, generated by a peptide synthesis platform (PEPscreen®, Custom Peptide Libraries, SigmaGenosys). Yield was ˜1-6 mg, and peptide length 20 amino acids. MALDI-ToF Mass Spectrometry was perfomed on these peptides. Average Crude Purity of 20mers was ˜60%. Peptides were supplied lyophilized and in a 96-well tube rack. Prior to biological testing the PEPscreen peptides were diluted in dH2O (5 mM stock), and stored at −20 C. This stock solution was used for the subsequent experiments.
(§2) Eschericia coli ATCC25922, Staphylococcus aureus ATCC29213, and the fungal isolate Candida albicans ATCC90028 were obtained from the Department of Bacteriology, Lund University Hospital.
(§3) Radial diffusion assays (RDA) were performed essentially as described earlier (Lehrer, R. I., Rosenman, M., Harwig, S. S., Jackson, R. & Eisenhauer, P. (1991) Ultrasensitive assays for endogenous antimicrobial polypeptides, J Immunol Methods. 137, 167-73). Briefly, bacteria (E. coli, S. aureus) or fungi (C. albicans) were grown to midlogarithmic phase in 10 ml of full-strength (3% w/v) trypticase soy broth (TSB) (Becton-Dickinson, Cockeysville, Md.). The microorganisms were washed once with 10 mM Tris, pH 7.4. 4×10^6 bacterial cfu or 1×10^5 fungal cfu was added to 5 ml of the underlay agarose gel, consisting of 0.03% (w/v) TSB, 1% (w/v) low-electroendoosmosistype (Low-EEO) agarose (Sigma, St Louise Mo.) and a final concentration of 0.02% (v/v) Tween 20 (Sigma). The underlay was poured into a Ø 85 mm petri dish. After agarose solidified, 4 mm-diameter wells were punched and 6 μl of test sample was added to each well. Plates were incubated at 37° C. for 3 hours to allow diffusion of the peptides. The underlay gel was then covered with 5 ml of molten overlay (6% TSB and 1% Low-EEO agarose in dH2O). Antimicrobial activity of a peptide is visualized as a clear zone around each well after 18-24 hours of incubation at 37° C. for bacteria and 28° C. for Candida albicans. Other examples of peptides that were screened and found to show an increased effect against the above mentioned microorgansism are listed below. Some of the results are found in table 1c showing the effects against C. albicans, table 1d E. coli and table 1e S. aureus.

[2] = tested on: Eschericia coli ATCC25922; assay: Radial diffusion assay (RDA), E. coli; assay type: cell-based, Escherichia coli; conditions: for RDA values (mm) E. coli ATCC 25922: Table 1b, 10 mM Tris Hcl (pH 7.4)
Experimental: as §1, §2, §3

[3] = tested on: Candida albicans ATCC90028; assay: Radial diffusion assay (RDA), C. albicans; assay type: cell-based; conditions: Table 1a; RDA clear zone
Experimental: as §1, §2, §3

Substance | RDA values (mm) S. aureus ATCC 29213 [1] | RDA values (mm) E. coli ATCC 25922 [2] | further results
KWWW [Peptide T11] | 0.00 mm | 0.00 mm | 
WWWK [Peptide T42] | 0.00 mm | 0.00 mm | 
NKGKKNGKHWWW [Peptide T24] | 2.41 mm | 8.44 mm | 
KKWWW [Peptide T55] | 1.01 mm | 2.95 mm | 
KNKWWWWW [Peptide T20] | 0.55 mm | 4.22 mm | 
WWW [Peptide T12] | 0.00 mm | 0.00 mm | 
HKHGHLHLKHKNKGKKNGKH [Peptide 36] |  |  | S. aureus ATCC 29213 Mean ([1]; Table 1a, RDA clear zone): 0.000; E.coli ATCC 25922 Mean, Ingrowth* counted ([2]; Table 1a, RDA clear zone, ingrowth counted): 0.000; E.coli ATCC 25922 Mean, Ingrowth not counted ([2]; Table 1a, RDA clear zone, ingrowth not counted): 0.000; Candida albicans ATCC 90028 Mean [3]: 0.000
KNKGKKNGKHWWWWW [Peptide T13] | 5.58 mm | 7.93 mm | 
WWWKNKGKKN [Peptide T36] | 0.66 mm | 5.04 mm | 
KNKGKKNGKWWW [Peptide T3] | 4.07 mm | 9.16 mm | 
KNKGKKWWWWW [Peptide T17] | 3.88 mm | 8.98 mm | 
DDDDDDDDDDWWW [Peptide T60] | 0.00 mm | 0.00 mm | 
HWWW [Peptide T32] | 0.00 mm | 0.00 mm | 
NGKHWWW [Peptide T29] | 0.00 mm | 0.00 mm | 
KNKGKWWWWW [Peptide T18] | 1.82 mm | 8.21 mm | 
KWWWWW [Peptide T22] | 0.00 mm | 2.18 mm | 
KKNGKHWWW [Peptide T27] | 1.68 mm | 7.56 mm | 
GKKNGKHWWW [Peptide T26] | 1.76 mm | 7.47 mm | 
KNKGKKNGKHGSGSPWWW [Peptide T61] | 1.52 mm | 8.64 mm | 
GKHWWW [Peptide T30] | 0.00 mm | 3.05 mm | 
SNSGSSNGSHWWW [Peptide T44] | 0.00 mm | 0.00 mm | 

Substance | RDA values (mm) S. aureus ATCC 29213 [1] | RDA values (mm) E. coli ATCC 25922 [2] | further results
KKKKKKKKWWW [Peptide T49] | 5.48 mm | 7.90 mm | 
KNWWW [Peptide T10] | 0.00 mm | 2.69 mm | 
KKKKKKKKKKWWW [Peptide T47] | 4.46 mm | 7.48 mm | 
KNKGKKNWWWWW [Peptide T16] | 3.83 mm | 9.09 mm | 
WWWSNSGSSNGSH [Peptide T45] | 0.00 mm | 0.00 mm | 
KNKGKWWW [Peptide T7] | 0.00 mm | 6.84 mm | 
WWWKNKGK [Peptide T38] | 0.00 mm | 1.42 mm | 
KNKWWW [Peptide T9] | 0.00 mm | 2.73 mm | 
KKKKKKKKKK [Peptide T46] | 1.32 mm | 5.94 mm | 
SNSGSSNGSH [Peptide T43] | 0.00 mm | 0.00 mm | 
KWWW [Peptide T56] | 0.75 mm | 4.48 mm | 
KNKGKKNGKH [Peptide T1] | 0.00 mm | 2.56 mm | 
WWWKNK [Peptide T40] | 0.00 mm | 0.00 mm | 
KNKGKKNGKWWWWW [Peptide T14] | 5.07 mm | 7.90 mm | 
KKKKKKKKKWWW [Peptide T48] | 7.19 mm | 9.26 mm | 
KNKGKKNGKHWWW [Peptide T23] | 3.26 mm | 8.65 mm | 
KNGKHWWW [Peptide T28] | 0.00 mm | 4.99 mm | 
WWWKNKGKKNGKH [Peptide T33] | 2.20 mm | 7.95 mm | 
KKKKKWWW [Peptide T52] | 3.43 mm | 9.01 mm | 
KKKKKKKWWW [Peptide T50] | 4.90 mm | 7.82 mm | 
KKKKWWW [Peptide T53] | 2.85 mm | 8.11 mm | 

Substance | RDA values (mm) S. aureus ATCC 29213 [1] | RDA values (mm) E. coli ATCC 25922 [2] | further results
KNKGKKNWWW [Peptide T5] | 2.85 mm | 8.36 mm | 
SSSSSSSSSSWWW [Peptide T58] | 0.00 mm | 0.00 mm | 
SSSSSSSSSS [Peptide T57] | 0.00 mm | 0.00 mm | 
WWWKN [Peptide T41] | 0.00 mm | 0.00 mm | 
KKKKKKWWW [Peptide T51] | 4.16 mm | 8.12 mm | 
KKKWWW [Peptide T54] | 2.02 mm | 4.93 mm | 
WWWKNKGKKNGK [Peptide T34] | 0.43 mm | 4.94 mm | 
KNKGWWWWW [Peptide T19] | 1.10 mm | 4.49 mm | 
KGKKNGKHWWW [Peptide T25] | 2.55 mm | 8.87 mm | 
KNKGWWW [Peptide T8] | 0.00 mm | 2.94 mm | 
KNWWWWW [Peptide T21] | 0.00 mm | 1.70 mm | 
WWWKNKGKK [Peptide T37] | 0.11 mm | 3.28 mm | 
DDDDDDDDDD [Peptide T59] | 0.00 mm | 0.00 mm | 
KHWWW [Peptide T31] | 0.00 mm | 1.48 mm | 
KNKGKKNGWWWWW [Peptide T15] | 3.90 mm | 8.03 mm | 
WWWKNKGKKNG [Peptide T35] | 0.00 mm | 1.57 mm | 
KNKGKKNGKHWWW [Peptide T2] | 4.23 mm | 8.90 mm | 
KNKGKKWWW [Peptide T6] | 2.79 mm | 8.16 mm | 
WWWKNKG [Peptide T39] | 0.00 mm | 0.00 mm | 
